From patent publication US9624237B2 (priority 2015, dated 2017)

Experiment: Water solubility examination
Assay type: physicochemical
Conditions: 1.44 mg of oridonin in 4 ml water
Description: Water solubility of the present nanoparticle is examined. 1.44 mg of oridonin is dissolved in 4 ml water. […] Large amount of white insoluble white oridonin powder is observed. On the other hand, oridonin functionalized selenium nanoparticle containing 1.68 mg of oridonin is prepared according to the present invention and dissolved in 4 ml water. […] The oridonin functionalized selenium nanoparticle aqueous solution is orangey red in color and no insoluble residue is observed.

Oridonin
water solubility: insoluble in water
